# Measured values taken from US10500195B2, “Antibacterial compounds” (WOCKHARDT LIMITED, priority 2017, dated 2019).
# Assays:
# [1] = test system: E. coli strain M50 (CMY, DHA); test: Time-dependent bacterial kill study; type: cell-based; details: initial count 7.18 log10 CFU/ml
# Description: In these studies, the initial bacterial count (at 0 hours) was 7.18 log10 CFU/ml. In general, 1, 2 and 3 log bacterial kill over initial count corresponds to […] bactericidal effect. In a typical time-dependent bacterial kill studies, freshly grown bacterial cultures were diluted to target cell density (initial starting inoculum) in Cation adjusted Muller Hinton broth medium (BD, USA). The antibacterial agents (either alone or in combination) at the required concentrations were added into the culture-containing medium. The sample flasks were incubated under shaking condition (120 rpm) at 37° C. Enumeration of viable bacterial count was undertaken periodically by diluting the sample in normal saline and plating on to the Tryptic Soya Agar plates (BD, USA). The plates were incubated for 24 hours to estimate viable bacterial count. The results are expressed in terms of Log10 CFU per ml.
# K. pneumoniae H522 = test: Antibacterial activity (MIC), agar dilution per CLSI; type: cell-based; details: Klebsiella pneumoniae
# Description: (§1) The biological activity of representative compounds according to the invention against various bacterial strains was investigated. In a typical study, overnight grown bacterial cultures were diluted appropriately and inoculated on the agar media containing doubling dilutions of the test compounds. Observation for growth or no growth was performed after 16-20 hours of incubation at 35±2° C. in ambient air. The overall procedure was performed as per Clinical and Laboratory Standards Institute (CLSI) recommendations (Clinical and Laboratory Standards Institute (CLSI), Performance Standards for Antimicrobial Susceptibility Testing, 20th Informational Supplement, M 100-S20, Volume 30, No. 1, 2010).
# E. coli 13351 = test: as above; type: cell-based; details: Escherichia coli
# Description: as §1
# E. coli 13352 = test: as above; type: cell-based; details: Escherichia coli
# Description: as §1
# K. pneumoniae H525 = test: as above; type: cell-based; details: Klebsiella pneumoniae
# Description: as §1
# E. coli M 36 = test: as above; type: cell-based; details: Escherichia coli, M36
# Description: as §1
# E. coli 13353 = test: as above; type: cell-based; details: Escherichia coli
# Description: as §1
# K. pneumoniae H521 = test: as above; type: cell-based; details: Klebsiella pneumoniae
# Description: as §1
# [2] = test system: K. pneumoniae ATCC 700603; test: as above; type: cell-based; details: Klebsiella pneumoniae, ATCC700603
# Description: as §1
# E. coli M 50 = test: as above; type: cell-based; details: Escherichia coli, M50
# Description: as §1
# E. coli 7MP = test: as above; type: cell-based; details: Escherichia coli
# Description: as §1
# K. pneumoniae H523 = test: as above; type: cell-based; details: Klebsiella pneumoniae
# Description: as §1
# E. coli M 49 = test: as above; type: cell-based; details: Escherichia coli, M49
# Description: as §1
# E. coli M 138 = test: as above; type: cell-based; details: Escherichia coli, M138
# Description: as §1
# [3] = 2 hours, antibacterial agent alone 8 μg/ml
# [4] = 4 hours, antibacterial agent alone 8 μg/ml
# [5] = 6 hours, antibacterial agent alone 8 μg/ml
# [6] = 8 hours, antibacterial agent alone 8 μg/ml
SMILES,"Bacterial count [1, 3] [Log10 CFU per ml]","Bacterial count [1, 4] [Log10 CFU per ml]","Bacterial count [1, 5] [Log10 CFU per ml]","Bacterial count [1, 6] [Log10 CFU per ml]",melting point,MIC (K. pneumoniae H522) [µg/mL],MIC (E. coli 13351) [µg/mL],MIC (E. coli 13352) [µg/mL],MIC (K. pneumoniae H525) [µg/mL],MIC (E. coli M 36) [µg/mL],MIC (E. coli 13353) [µg/mL],MIC (K. pneumoniae H521) [µg/mL],MIC [2] [µg/mL],MIC (E. coli M 50) [µg/mL],MIC (E. coli 7MP) [µg/mL],MIC (K. pneumoniae H523) [µg/mL],MIC (E. coli M 49) [µg/mL],MIC (E. coli M 138) [µg/mL],other results
CO/N=C(\C(=O)N[C@@H]1C(=O)N2C(C(=O)[O-])=C(C[N+]3(C)CCCC3)CS[C@H]12)c1csc(N)n1 [Cefepime],7.85,8.65,8.90,9.0,,,,,,,,,,,,,,,
C=CC1=C(C(=O)O)N2C(=O)[C@@H](NC(=O)/C(=N\OCC(=O)O)c3csc(N)n3)[C@H]2SC1 [Cefixime],7.85,8.90,8.78,9.04,,,,,,,,,,,,,,,
COCC1=C(C(=O)O)N2C(=O)[C@@H](NC(=O)/C(=N\OC)c3csc(N)n3)[C@H]2SC1 [Cefpodoxime],7.95,8.70,8.95,9.30,,,,,,,,,,,,,,,
CC(C)(O/N=C(\C(=O)N[C@@H]1C(=O)N2C(C(=O)[O-])=C(C[n+]3ccccc3)CS[C@H]12)c1csc(N)n1)C(=O)O [Ceftazidime],7.81,8.90,9.0,8.92,,,,,,,,,,,,,,,
Nc1nc(/C(=C/CC(=O)O)C(=O)N[C@@H]2C(=O)N3C(C(=O)O)=CCS[C@H]23)cs1 [Ceftibuten],7.98,8.30,8.74,9.48,,,,,,,,,,,,,,,
"O=C(NOC[C@@H]1C[C@H](F)CN1)[C@@H]1CC[C@@H]2CN1C(=O)N2OS(=O)(=O)O [Example 1, (2S, 5R)-N-{[(2S, 4S)-4-fluoropyrrolidin-2-yl]methyloxy}-7-oxo-6-(sulfooxy)-1,6-diazabicyclo[3.2.1]octane-2-carboxamide]",,,,,180 to 183 °C (dec.),1,0.5,1,0.5,0.25,0.5,1,> 32,0.5,1,1,4,0.5,"Bacterial count ([1]; 2 hours, Compound of Formula (Ia) alone 4 μg/ml): 7.78 Log10 CFU per ml; Bacterial count ([1]; 4 hours, Compound of Formula (Ia) alone 4 μg/ml): 6.74 Log10 CFU per ml; Bacterial count ([1]; 6 hours, Compound of Formula (Ia) alone 4 μg/ml): 5.85 Log10 CFU per ml; Bacterial count ([1]; 8 hours, Compound of Formula (Ia) alone 4 μg/ml): 6.13 Log10 CFU per ml"
"O=C(NOC[C@@H]1C[C@@H](F)CN1)[C@@H]1CC[C@@H]2CN1C(=O)N2OS(=O)(=O)O [Example 2, (2S, 5R)-N-{[(2S, 4R)-4-fluoropyrrolidin-2-yl]methyloxy}-7-oxo-6-(sulfooxy)-1,6-diazabicyclo[3.2.1]octane-2-carboxamide]",,,,,160 to 163 °C (dec.),4,1,2,4,1,1,4,> 32,2,2,4,4,2,
"O=C(NOC[C@H]1C[C@H](F)CN1)[C@@H]1CC[C@@H]2CN1C(=O)N2OS(=O)(=O)O [Example 3, (2S, 5R)-N-{[(2R, 4S)-4-fluoropyrrolidin-2-yl]methyloxy}-7-oxo-6-(sulfooxy)-1,6-diazabicyclo[3.2.1]octane-2-carboxamide]",,,,,175 to 178 °C (dec.),2,1,2,2,1,1,2,> 32,1,2,2,4,1,
"O=C(NOC[C@H]1C[C@@H](F)CN1)[C@@H]1CC[C@@H]2CN1C(=O)N2OS(=O)(=O)O [Example 4, (2S, 5R)-N-{[(2R, 4R)-4-fluoropyrrolidin-2-yl]methyloxy}-7-oxo-6-(sulfooxy)-1,6-diazabicyclo[3.2.1]octane-2-carboxamide]",,,,,207 to 209 °C (dec.),4,2,4,2,1,1,4,> 32,2,4,4,4,2,
